Laboratory results: ChEMBL document CHEMBL1287784, “A facile 1,3-dipolar cycloaddition of azomethine ylides to 2-arylidene-1,3-indanediones: synthesis of dispiro-oxindolylpyrrolothiazoles and their antimycobacterial evaluation” (2010)
Converted amounts (≈) assume the structure as drawn.

Tested on: Mycobacterium tuberculosis
Assay: Antimycobacterial activity against Mycobacterium tuberculosis H37Rv by agar dilution method
Type: functional

Structure (SMILES)	MIC
COc1ccc([C@H]2[C@@H]3CSCN3[C@@]3(C(=O)Nc4ccccc43)C23C(=O)c2ccccc2C3=O)cc1	> 51.8 µM
O=C1Nc2ccc([N+](=O)[O-])cc2[C@]12N1CSC[C@H]1[C@H](c1cccc(Cl)c1Cl)[C@]21Cc2ccccc2C1=O	2.8 µM (≈ 1.55 µg/mL)
COc1cc([C@H]2[C@@H]3CSCN3[C@@]3(C(=O)Nc4ccc(Cl)cc43)C23C(=O)c2ccccc2C3=O)cc(OC)c1OC	21.7 µM (≈ 12.5 µg/mL)
O=C1c2ccccc2C(=O)C12[C@@H](c1ccccc1Cl)[C@@H]1CSCN1[C@@]21C(=O)Nc2ccccc21	25.7 µM (≈ 12.5 µg/mL)
COc1ccc([C@H]2[C@@H]3CSCN3[C@@]3(C(=O)Nc4ccc(Cl)cc43)C23C(=O)c2ccccc2C3=O)cc1OC	22.9 µM (≈ 12.5 µg/mL)
O=C1c2ccccc2C(=O)C12[C@@H](c1cccc(Br)c1)[C@@H]1CSCN1[C@@]21C(=O)Nc2ccc([N+](=O)[O-])cc21	2.7 µM (≈ 1.56 µg/mL)
COc1ccc([C@H]2[C@@H]3CSCN3[C@@]3(C(=O)Nc4ccc([N+](=O)[O-])cc43)C23C(=O)c2ccccc2C3=O)cc1	11.9 µM (≈ 6.28 µg/mL)
COc1cc([C@H]2[C@@H]3CSCN3[C@@]3(C(=O)Nc4ccccc43)C23C(=O)c2ccccc2C3=O)cc(OC)c1OC	> 46.1 µM
COc1ccc([C@H]2[C@@H]3CSCN3[C@@]3(C(=O)Nc4ccccc43)C23C(=O)c2ccccc2C3=O)cc1OC	> 48.8 µM
O=C1c2ccccc2C(=O)C12[C@@H](c1ccc(Cl)cc1)[C@@H]1CSCN1[C@@]21C(=O)Nc2ccc(Cl)cc21	2.99 µM (≈ 1.56 µg/mL)
O=C1c2ccccc2C(=O)C12[C@@H](c1cccc([N+](=O)[O-])c1)[C@@H]1CSCN1[C@@]21C(=O)Nc2ccccc21	25.1 µM (≈ 12.5 µg/mL)
Cc1ccccc1[C@H]1[C@@H]2CSCN2[C@@]2(C(=O)Nc3ccccc32)C12C(=O)c1ccccc1C2=O	53.6 µM (≈ 25 µg/mL)
COc1cc([C@H]2[C@@H]3CSCN3[C@@]3(C(=O)Nc4ccc([N+](=O)[O-])cc43)C23C(=O)c2ccccc2C3=O)cc(OC)c1OC	10.6 µM (≈ 6.23 µg/mL)
COc1ccc([C@H]2[C@@H]3CSCN3[C@@]3(C(=O)Nc4ccc(Cl)cc43)C23C(=O)c2ccccc2C3=O)cc1	24.2 µM (≈ 12.5 µg/mL)
O=C1c2ccccc2C(=O)C12[C@@H](c1ccccc1Br)[C@@H]1CSCN1[C@@]21C(=O)Nc2ccc(Cl)cc21	2.8 µM (≈ 1.58 µg/mL)
O=C1c2ccccc2C(=O)C12[C@@H](c1ccccc1)[C@@H]1CSCN1[C@@]21C(=O)Nc2ccc([N+](=O)[O-])cc21	12.6 µM (≈ 6.27 µg/mL)

Structure (SMILES)	MIC
CC(C)c1ccc([C@H]2[C@@H]3CSCN3[C@@]3(C(=O)Nc4ccc(Cl)cc43)C23C(=O)c2ccccc2C3=O)cc1	11.8 µM (≈ 6.24 µg/mL)
O=C1c2ccccc2C(=O)C12[C@@H](c1ccccc1Cl)[C@@H]1CSCN1[C@@]21C(=O)Nc2ccc(Cl)cc21	6 µM (≈ 3.13 µg/mL)
COc1ccc([C@H]2[C@@H]3CSCN3[C@@]3(C(=O)Nc4ccc([N+](=O)[O-])cc43)C23C(=O)c2ccccc2C3=O)cc1OC	11.2 µM (≈ 6.24 µg/mL)
O=C1c2ccccc2C(=O)C12[C@@H](c1ccccc1)[C@@H]1CSCN1[C@@]21C(=O)Nc2ccccc21	> 55.2 µM
CC[C@@H](CO)NCCN[C@@H](CC)CO [ETHAMBUTOL]	7.6 µM (≈ 1.55 µg/mL)
O=C1c2ccccc2C(=O)C12[C@@H](c1ccccc1Br)[C@@H]1CSCN1[C@@]21C(=O)Nc2ccccc21	11.8 µM (≈ 6.27 µg/mL)
O=C1c2ccccc2C(=O)C12[C@@H](c1ccccc1Cl)[C@@H]1CSCN1[C@@]21C(=O)Nc2ccc([N+](=O)[O-])cc21	5.9 µM (≈ 3.14 µg/mL)
CO[C@H]1/C=C/O[C@@]2(C)Oc3c(C)c(O)c4c(O)c(c(/C=N/N5CCN(C)CC5)c(O)c4c3C2=O)NC(=O)/C(C)=C\C=C\[C@H](C)[C@H](O)[C@@H](C)[C@@H](O)[C@@H](C)[C@H](OC(C)=O)[C@@H]1C [RIFAMPIN]	0.1 µM (≈ 0.0823 µg/mL)
O=C1c2ccccc2C(=O)C12[C@@H](c1ccc(Cl)cc1)[C@@H]1CSCN1[C@@]21C(=O)Nc2ccccc21	25.7 µM (≈ 12.5 µg/mL)
O=C1c2ccccc2C(=O)C12[C@@H](c1ccccc1)[C@@H]1CSCN1[C@@]21C(=O)Nc2ccc(Cl)cc21	25.7 µM (≈ 12.5 µg/mL)
O=C1c2ccccc2C(=O)C12[C@@H](c1ccc(Cl)cc1)[C@@H]1CSCN1[C@@]21C(=O)Nc2ccc([N+](=O)[O-])cc21	2.9 µM (≈ 1.54 µg/mL)
O=C1c2ccccc2C(=O)C12[C@@H](c1ccc(Br)cc1)[C@@H]1CSCN1[C@@]21C(=O)Nc2ccc([N+](=O)[O-])cc21	1.4 µM (≈ 0.807 µg/mL)
NNC(=O)c1ccncc1 [ISONIAZID]	0.4 µM (≈ 0.0549 µg/mL)
O=C1c2ccccc2C(=O)C12[C@@H](c1cccc(F)c1)[C@@H]1CSCN1[C@@]21C(=O)Nc2ccc([N+](=O)[O-])cc21	3 µM (≈ 1.55 µg/mL)
CC(C)c1ccc([C@H]2[C@@H]3CSCN3[C@@]3(C(=O)Nc4ccccc43)C23C(=O)c2ccccc2C3=O)cc1	25.3 µM (≈ 12.5 µg/mL)
